Experimental data from patent publication US8710089B2, “Triazole derivatives as ghrelin analogue ligands of growth hormone secretagogue receptors” (Zentaris GmbH, priority 2005, dated 2014).
pIC50: −log10 of the molar value.

How the values were obtained:
[1] = test system: young-adult male Sprague-Dawley rats; experiment: Feeding behavior (food intake) of young-adult male rats; format: in vivo, rat (Sprague-Dawley)
Procedure: V) Assaying the Feeding Behavior (Food Intake) of Young-Adult Male Rats
The impact of compounds of the invention being GHS receptor analogue ligands on the feeding behaviour, i.e. food intake, of young-adult male rats was assayed.
In principle, assaying the feeding behavior (food intake) of young-adult male rats was performed according to Torsello et al. (Eur. J. Pharmacol. 1998, 360: 123-129).
For the assay, young-adult male Sprague-Dawley rats (Charles River, Calco, Italy), weighing 200-250 g, were used.
Rats had 1 week of acclimation in individual home cages, and animal room conditions (22±2° C., 65% humidity, artificial light from 08.00 to 20.00 h). The following week, they were daily trained to mimic the experimental procedure. Rats maintained free access to dry pellets and tap water throughout the whole experimental period. At the end of training, rats were administered (around 10.00-11.00 a.m.) subcutaneously with the compounds to be tested (160 μg/kg body weight) and/or hexarelin (80 μg/kg body weight) and/or solvent [DMSO (0.4% of total volume), distilled water (4% of total volume), brought to the final volume with physiological saline].
Hexarelin was used to study the effects of the compounds to be tested on stimulated feeding behavior. Immediately after the injections, the animals were returned to their home cages, which contained a known amount of standard rat chow and ad libitum water. Every hour for the following 6 hours, the remaining food was carefully collected and weighed to the nearest 0.1 g. Food intake was normalized for the body weight of the rats and expressed as grams of food eaten per 100 g body weight of rats.
In the following table 4 results obtained for selected compounds of the invention are presented.

human GHS-R 1a = target: T1, human GHS-R 1a (Homo sapiens, UniProt Q92847); experiment: GHS-R 1a receptor-ligand binding assay (membrane preparations from transfected LLC PK-1 cells); conditions: displacement of 125I-His9-ghrelin (60 pM); membranes of LLC PK-1 cells transfected with human GHS-R 1a; mean of at least two independent experiments in triplicates
T1 construct: expressed in transfected cells; host or cells: LLC PK-1 porcine renal epithelial cells (ECACC No. 86121112), isolated plasma membranes
T1 sequence (Q92847 whole entry): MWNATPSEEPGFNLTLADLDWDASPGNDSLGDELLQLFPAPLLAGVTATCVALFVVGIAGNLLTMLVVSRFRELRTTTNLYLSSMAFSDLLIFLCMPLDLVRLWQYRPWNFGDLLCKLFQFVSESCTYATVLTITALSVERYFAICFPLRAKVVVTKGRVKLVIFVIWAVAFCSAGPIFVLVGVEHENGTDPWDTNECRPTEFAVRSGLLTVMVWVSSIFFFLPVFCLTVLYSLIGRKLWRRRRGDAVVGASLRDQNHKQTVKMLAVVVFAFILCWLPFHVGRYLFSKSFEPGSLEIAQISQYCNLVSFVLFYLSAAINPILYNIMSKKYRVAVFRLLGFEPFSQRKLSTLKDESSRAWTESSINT
Summary of the method: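 Membranes from LLC PK-1 cells expressing human GHS-R 1a incubated 60 min at 25 °C in 50 mM Tris pH 7.3, 5 mM MgCl2, 2.5 mM EDTA, bacitracin with 60 pM 125I-ghrelin and competitor; nonspecific binding with 10^-6 M ghrelin; filtration read-out.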

[2] = compound 160 μg/kg s.c. + hexarelin 80 μg/kg s.c.
[3] = compound alone, 160 μg/kg body weight s.c.

Compound	Cumulative food intake (after 2 hours) [1, 2] [g food/100 g body weight]	Cumulative food intake (after 6 hours) [1, 2] [g food/100 g body weight]	Cumulative food intake (after 2 hours) [1, 3] [g food/100 g body weight]	Cumulative food intake (after 6 hours) [1, 3] [g food/100 g body weight]	pIC50 (human GHS-R 1a)
COc1ccc(Cn2c(CCc3c[nH]c4ccccc34)nnc2[C@@H](Cc2c[nH]c3ccccc23)NC(=O)c2ccccn2)cc1 [compound 80, (R)—N-(1-(5-(2-(1H-indol-3-yl)ethyl)-4-(4-methoxybenzyl)-4H-1,2,4-triazol-3-yl)-2-(1H-indol-3-yl)ethyl)picolinamide]	0.475 ± 0.196	0.733 ± 0.238	0.145 ± 0.143	0.346 ± 0.159	8.72
COc1ccc(Cn2c(CCc3c[nH]c4ccccc34)nnc2[C@@H](Cc2c[nH]c3ccccc23)NC(=O)C2CNCCN2)c(OC)c1 (mixture of isomers) [compound 72]	0.634 ± 0.33	0.746 ± 0.31	0.008 ± 0.003	0.011 ± 0	7.49
CC(C)(N)C(=O)N[C@H](Cc1c[nH]c2ccccc12)c1nnc(CCCc2c[nH]c3ccccc23)n1CCc1c[nH]c2ccccc12 [compound 24, (R)—N-(1-(4-(2-(1H-indol-3-yl)ethyl)-5-(3-(1H-indol-3-yl)propyl)-4H-1,2,4-triazol-3-yl)-2-(1H-indol-3-yl)ethyl)-2-amino-2-methylpropanamide]	0.586 ± 0.252	0.912 ± 0.359	0.008 ± 0.008	0.215 ± 0.200	7.54
COc1ccc(Cn2c(CCc3c[nH]c4ccccc34)nnc2[C@@H](Cc2c[nH]c3ccccc23)NC(=O)c2ccccc2N)c(OC)c1 [compound 38, (R)—N-(1-(5-(2-(1H-indol-3-yl)ethyl)-4-(2,4-dimethoxybenzyl)-4H-1,2,4-triazol-3-yl)-2-(1H-indol-3-yl)ethyl)-2-aminobenzamide]	0.002 ± 0.002	0.478 ± 0.141	0.001 ± 0	0.076 ± 0.096	6.95
CC(C)(N)C(=O)N[C@H](Cc1c[nH]c2ccccc12)c1nnc(CCc2c[nH]c3ccccc23)n1CCc1c[nH]c2ccccc12 [compound 17, (R)—N-(1-(4,5-bis(2-(1H-indol-3-yl)ethyl)-4H-1,2,4-triazol-3-yl)-2-(1H-indol-3-yl)ethyl)-2-amino-2-methylpropanamide]	0.0501 ± 0.049	0.846 ± 0.411	0.001 ± 0.001	0.2661 ± 0.166	6.81
COc1ccc(Cn2c(CCc3ccccc3)nnc2[C@@H](Cc2c[nH]c3ccccc23)NC(=O)[C@H]2CCCCN2)cc1 [compound 49, (R)—N—((R)-1-(4-(4-methoxybenzyl)-5-phenethyl-4H-1,2,4-triazol-3-yl)-2-(1H-indol-3-yl)ethyl)piperidine-2-carboxamide]	0.057 ± 0.037	0.558 ± 0.212	0.004 ± 0.004	0.004 ± 0.004	–
COc1ccc(Cn2c(Cc3ccccc3)nnc2[C@@H](Cc2c[nH]c3ccccc23)NC(=O)C(C)(C)N)cc1 [compound 13, (R)—N-(1-(4-(4-methoxybenzyl)-5-benzyl-4H-1,2,4-triazol-3-yl)-2-(1H-indol-3-yl)ethyl)-2-amino-2-methylpropanamide]	0.731 ± 0.318	0.792 ± 0.337	0.057 ± 0.057	0.167 ± 0.167	6.86
COc1ccc(Cn2c(CCc3ccccc3)nnc2[C@@H](Cc2c[nH]c3ccccc23)NC(=O)C2CCNCC2)c(OC)c1 [compound 62, (R)—N-(1-(4-(2,4-dimethoxybenzyl)-5-phenethyl-4H-1,2,4-triazol-3-yl)-2-(1H-indol-3-yl)ethyl)piperidine-4-carboxamide]	–	–	–	–	9.05
COc1ccc(Cn2c(CCc3ccccc3)nnc2[C@@H](Cc2c[nH]c3ccccc23)NC(=O)c2ccccn2)cc1 [compound 79, (R)—N-(1-(4-(4-methoxybenzyl)-5-phenethyl-4H-1,2,4-triazol-3-yl)-2-(1H-indol-3-yl)ethyl)picolinamide]	–	–	–	–	9.15
COc1cc(Cn2c(CCc3c[nH]c4ccccc34)nnc2[C@@H](Cc2c[nH]c3ccccc23)NC(=O)C(C)(C)N)cc(OC)c1 [compound 21, (R)—N-(1-(5-(2-(1H-indol-3-yl)ethyl)-4-(3,5-dimethoxybenzyl)-4H-1,2,4-triazol-3-yl)-2-(1H-indol-3-yl)ethyl)-2-amino-2-methylpropanamide]	–	–	–	–	6.69
COc1cccc(Cn2c(Cc3ccccc3)nnc2[C@@H](Cc2c[nH]c3ccccc23)NC(=O)C(C)(C)N)c1 [compound 7, (R)—N-(1-(4-(3-methoxybenzyl)-5-benzyl-4H-1,2,4-triazol-3-yl)-2-(1H-indol-3-yl)ethyl)-2-amino-2-methylpropanamide]	–	–	–	–	6.92
COc1ccc(Cn2c(CCc3c[nH]c4ccccc34)nnc2[C@@H](Cc2c[nH]c3ccccc23)NC(=O)C2CCCCC2N)c(OC)c1 (stereo partly drawn) [compound 86, (R)—N-(1-(5-(2-(1H-indol-3-yl)ethyl)-4-(2,4-dimethoxybenzyl)-4H-1,2,4-triazol-3-yl)-2-(1H-indol-3-yl)ethyl)-2-cis-aminocyclohexanecarboxamide]	–	–	–	–	6.84
COc1ccccc1Cn1c(CCc2c[nH]c3ccccc23)nnc1[C@@H](Cc1c[nH]c2ccccc12)NC(=O)C(C)(C)N [compound 25]	–	–	–	–	7.02
COc1ccc(Cn2c(CCc3ccccc3)nnc2[C@@H](Cc2c[nH]c3ccccc23)NC(=O)[C@@H]2CCCN2)c(OC)c1 [compound 68, (S)—N—((R)-1-(4-(2,4-dimethoxybenzyl)-5-phenethyl-4H-1,2,4-triazol-3-yl)-2-(1H-indol-3-yl)ethyl)pyrrolidine-2-carboxamide]	–	–	–	–	7.36
O=C(N[C@H](Cc1c[nH]c2ccccc12)c1nnc(CCc2ccccc2)n1Cc1cccs1)C1CCNCC1 [compound 94, (R)—N-(2-(1H-indol-3-yl)-1-(5-phenethyl-4-(thiophen-2-ylmethyl)-4H-1,2,4-triazol-3-yl)ethyl)piperidine-4-carboxamide]	–	–	–	–	6.59
COc1ccc(Cn2c(CCc3c[nH]c4ccccc34)nnc2[C@H](Cc2c[nH]c3ccccc23)NC(=O)C(C)(C)N)c(OC)c1 [compound 18, (S)—N-(1-(5-(2-(1H-indol-3-yl)ethyl)-4-(2,4-dimethoxybenzyl)-4H-1,2,4-triazol-3-yl)-2-(1H-indol-3-yl)ethyl)-2-amino-2-methylpropanamide]	–	–	–	–	7.08
CCc1ccc(Cn2c(CCc3ccccc3)nnc2[C@@H](Cc2c[nH]c3ccccc23)NC(=O)[C@H]2CCCNC2)cc1 [compound 155, (3S)—N—((R)-1-(4-(4-ethylbenzyl)-5-phenethyl-4H-1,2,4-triazol-3-yl)-2-(1H-indol-3-yl)ethyl)piperidine-3-carboxamide]	–	–	–	–	6.73
CC(C)(N)C(=O)N[C@H](Cc1c[nH]c2ccccc12)c1nnc(CCc2c[nH]c3ccccc23)n1CCc1ccccc1 [compound 2, (R)—N-(1-(5-(2-(1H-indol-3-yl)ethyl)-4-phenethyl-4H-1,2,4-triazol-3-yl)-2-(1H-indol-3-yl)ethyl)-2-amino-2-methylpropanamide]	–	–	–	–	7.09
COc1ccc(Cn2c(CCc3c[nH]c4ccccc34)nnc2[C@@H](Cc2c[nH]c3ccccc23)NC(=O)C2CCCCN2)c(OC)c1 (stereo partly drawn) [compound 36, (R)—N-(1-(5-(2-(1H-indol-3-yl)ethyl)-4-(2,4-dimethoxybenzyl)-4H-1,2,4-triazol-3-yl)-2-(1H-indol-3-yl)ethyl)piperidine-2-carboxamide]	–	–	–	–	7.28
